Measurements published in the supplement of paper PMC12137928.
Structures can show the parent of a compound that is named as a salt.

Test system: HCT116
Settings: 72 h
How it was run: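 HCT116 cells went into 1536-well plates at 250 per well. CellTiter-Glo luminescence was expressed relative to vehicle (0%) and positive control (-100%) and then pattern-corrected. Both IC50 and maximal efficacy were taken from four-parameter Hill fits.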

| SMILES | IC50 cell viability (ICRF193 0 nM) [µM] | IC50 cell viability (ICRF193 200 nM) [µM] |
| --- | --- | --- |
| COC(=O)C(c1ccccc1)C1CCCCN1 (configuration not stated) [METHYLPHENIDATE HYDROCHLORIDE] | > 45.8 | > 45.8 |
| CCCc1c2oc(C(=O)O)cc(=O)c2cc2c(=O)cc(C(=O)O)n(CC)c12 [Nedocromil] | > 45.8 | > 45.8 |
| CC(=O)c1ccc(S(=O)(=O)NC(=O)NC2CCCCC2)cc1 [Acetohexamide] | > 45.8 | > 45.8 |
| CCC1(c2cccc(O)c2)CCCCN(C)C1 (configuration not stated) [Meptazinol hydrochloride] | > 45.8 | > 45.8 |
| CS(=O)(=O)OCCCCOS(C)(=O)=O [Busulfan] | > 45.8 | > 45.8 |
| CC(=O)CCCCn1c(=O)c2c(ncn2C)n(C)c1=O [Pentoxifylline] | > 45.8 | > 45.8 |
| C=CCc1ccc(O)c(OC)c1 [Eugenol] | > 45.8 | > 45.8 |
| OC[C@H]1O[C@@H](n2cnc3c2N=CNC[C@H]3O)C[C@@H]1O [Pentostatin] | > 45.8 | > 45.8 |
| O=C(N[C@H]1N=C(c2ccccc2F)c2cccc3c2N(CC3)C1=O)c1cc2ccccc2[nH]1 [Pranazepide] | > 45.8 | > 45.8 |
| O=c1ccc2ccccc2o1 [Coumarin] | > 45.8 | > 45.8 |
| CCOc1ccccc1OC(c1ccccc1)C1CNCCO1 (configuration not stated) [Reboxetine mesylate] | > 45.8 | > 45.8 |
| Cc1ccc(/C(=C\CN2CCCC2)c2ccccn2)cc1 [Triprolidine] | > 45.8 | > 45.8 |
| NS(=O)(=O)c1cc2c(cc1Cl)NC(CC1CCCC1)NS2(=O)=O (configuration not stated) [Cyclopenthiazide] | > 45.8 | > 45.8 |
| COc1cc(C(=O)NC2CCCNC2)cc(OC)c1OC (configuration not stated) [Troxipide] | > 45.8 | > 45.8 |
| CCCCS(=O)(=O)N[C@@H](Cc1ccc(OCCCCC2CCNCC2)cc1)C(=O)O [Tirofiban hydrochloride monohydrate] | > 45.8 | > 45.8 |
| CC(=O)CC(c1ccc([N+](=O)[O-])cc1)c1c(O)c2ccccc2oc1=O (configuration not stated) [Acenocoumarol] | > 45.8 | > 45.8 |

| SMILES | IC50 cell viability (ICRF193 0 nM) [µM] | IC50 cell viability (ICRF193 200 nM) [µM] |
| --- | --- | --- |
| CCCCCN(CCCOC)C(=O)C(CCC(=O)O)NC(=O)c1ccc(Cl)c(Cl)c1 (configuration not stated) [Loxiglumide] | > 45.8 | > 45.8 |
| O=C/C=C/c1ccccc1 [(2E)-3-Phenylprop-2-enal] | > 45.8 | > 45.8 |
| C=CCCCCCCCCC(=O)[O-].C=CCCCCCCCCC(=O)[O-].[Zn+2] [ZINC UNDECYLENATE] | > 45.8 | > 45.8 |
| C[C@]12C=CC(=O)C=C1CC[C@@H]1[C@@H]2[C@@H](O)C[C@@]2(C)[C@H]1CC[C@]2(O)C(=O)COP(=O)(O)O [Prednisolone Phosphate (sodium salt)] | > 45.8 | > 45.8 |
| CC[C@@H](CO)NC(=O)[C@@H]1C=C2c3cccc4c3c(cn4C)C[C@H]2N(C)C1 [Methysergide] | > 45.8 | > 45.8 |
| CN(C)CCCC1(c2ccc(F)cc2)OCc2cc(C#N)ccc21 (configuration not stated) [Citalopram hydrobromide] | > 45.8 | > 45.8 |
| CCC(C)(Oc1ccc(C2(c3ccc(OC(C)(CC)C(=O)O)cc3)CCCCC2)cc1)C(=O)O (configuration not stated) [Clinofibrate] | > 45.8 | > 45.8 |
| COC(=O)/C=C\C(=O)OC [Dimethyl maleate] | > 45.8 | > 45.8 |
| CC1(C)O[C@@H]2C[C@H]3[C@@H]4CCC5=CC(=O)C=C[C@]5(C)[C@H]4[C@@H](O)C[C@]3(C)[C@]2(C(=O)CO)O1 [Desonide] | > 45.8 | > 45.8 |
| N=C(N)NCCC[C@@H](N)C(=O)N[C@@H](CCCNC(=N)N)C(=O)N1CCC[C@H]1C(=O)N1C[C@H](O)C[C@H]1C(=O)NCC(=O)N[C@@H](Cc1cccs1)C(=O)N[C@@H](CO)C(=O)N1Cc2ccccc2C[C@@H]1C(=O)N1[C@H](C(=O)N[C@@H](CCCNC(=N)N)C(=O)O)C[C@@H]2CCCC[C@@H]21 [Icatibant] | > 45.8 | > 45.8 |
| CCC(c1ccccc1)c1c(O)c2ccccc2oc1=O (configuration not stated) [Phenprocoumon] | > 45.8 | > 45.8 |
| CCCc1nn(C)c2c(=O)[nH]c(-c3cc(S(=O)(=O)N4CCN(C)CC4)ccc3OCC)nc12 [Sildenafil citrate] | > 45.8 | > 45.8 |
| c1ccc2c(CC3=NCCN3)cccc2c1 [Naphazoline hydrochloride] | > 45.8 | > 45.8 |
| CN1CCC(=C2c3ccccc3C=Cc3ccccc32)CC1 [Cyproheptadine hydrochloride] | > 45.8 | > 45.8 |
| O=C1c2ccccc2C(=O)C1c1ccccc1 [Phenindione] | > 45.8 | > 45.8 |
